Experimental findings from patent US20250312352A1, “GLP-1R MODULATING COMPOUNDS” (Gilead Sciences, Inc., priority 2021, published 2025) are described below.

The assay concerns the target T1, GLP-1R (Homo sapiens, UniProt P43220).
T1 construct: host or cells: CHO cells
Description: GLP-1R activation cAMP assay (Assay 1 or Assay 2). The format is cell-based. The settings on record: cAMP increase in CHO cells stably expressing GLP-1R; compounds run on one of the two cAMP assays. In a few lines:
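EC50 values come from a sigmoidal fit of HTRF-detected cAMP rise versus log agonist concentration. GLP-1R-expressing CHO cells, equilibrated 1 h at 37 °C in HBSS with HEPES and BSA, received a 10-point compound dose series for 30 min before detection.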
For orientation: Cyclic AMP is a second messenger, typically raised through Gs and lowered through Gi signalling.

T1 sequence (P43220 24-463): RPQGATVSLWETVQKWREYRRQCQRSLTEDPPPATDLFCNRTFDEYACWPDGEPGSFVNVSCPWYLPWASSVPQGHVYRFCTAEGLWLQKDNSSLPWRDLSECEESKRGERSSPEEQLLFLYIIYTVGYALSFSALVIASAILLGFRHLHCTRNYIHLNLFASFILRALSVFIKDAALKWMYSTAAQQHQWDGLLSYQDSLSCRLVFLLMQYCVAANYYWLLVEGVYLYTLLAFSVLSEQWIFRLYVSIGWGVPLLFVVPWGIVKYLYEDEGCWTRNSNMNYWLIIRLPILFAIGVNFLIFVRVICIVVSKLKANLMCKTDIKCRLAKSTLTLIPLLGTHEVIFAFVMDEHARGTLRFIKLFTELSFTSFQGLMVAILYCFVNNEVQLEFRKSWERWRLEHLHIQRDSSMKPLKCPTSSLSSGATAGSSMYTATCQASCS

A word on the EC50: it is the concentration at which the effect is half-maximal. The low end stands for higher potency in that assay, the high end for lower potency in that assay. Regarding `CNC(=O)c1cc(Cl)c(COc2cccc(-c3cc(F)c(Cc4nc5c(F)cc(C(=O)O)cc5n4C[C@@H]4CCO4)cc3F)n2)cn1` [Example 198, (S)-2-(4-(6-((4-chloro-6-(methylcarbamoyl)pyridin-3-yl)methoxy)pyridin-2-yl)-2,5-difluorobenzyl)-4-fluoro-1-(oxetan-2-ylmethyl)-1H-benzo[d]imidazole-6-carboxylic acid], the response was half-maximal at 0.04 nM (EC50). `CC(C)(C#N)NC(=O)c1cc(Cl)c(COc2cccc(-c3cc(F)c(Cc4nc5ccc(C(=O)O)cc5n4C[C@@H]4CCO4)cc3F)n2)cn1` [Example 199, (S)-2-(4-(6-((4-chloro-6-((2-cyanopropan-2-yl)carbamoyl)pyridin-3-yl)methoxy)pyridin-2-yl)-2,5-difluorobenzyl)-1-(oxetan-2-ylmethyl)-1H-benzo[d]imidazole-6-carboxylic acid] yielded an EC50 of 0.53 nM. Take `C[C@H](C#N)NC(=O)c1cc(Cl)c(COc2cccc(-c3cc(F)c(Cc4nc5ccc(C(=O)O)cc5n4C[C@@H]4CCO4)cc3F)n2)cn1` [Example 200, 2-(4-(6-((4-chloro-6-(((R)-1-cyanoethyl)carbamoyl)pyridin-3-yl)methoxy)pyridin-2-yl)-2,5-difluorobenzyl)-1-(((S)-oxetan-2-yl)methyl)-1H-benzo[d]imidazole-6-carboxylic acid]: it took 0.24 nM to reach a half-maximal effect (EC50).

Compound `C[C@@H](C#N)NC(=O)c1cc(Cl)c(COc2cccc(-c3cc(F)c(Cc4nc5ccc(C(=O)O)cc5n4C[C@@H]4CCO4)cc3F)n2)cn1` [Example 201, 2-(4-(6-((4-chloro-6-(((S)-1-cyanoethyl)carbamoyl)pyridin-3-yl)methoxy)pyridin-2-yl)-2,5-difluorobenzyl)-1-(((S)-oxetan-2-yl)methyl)-1H-benzo[d]imidazole-6-carboxylic acid] displayed an EC50 of 0.39 nM. With `CC1(C)COC[C@@H]1n1c(Cc2cc(F)c(-c3cccc(OCc4ccc(C(=O)NC5(C#N)CC5)nc4)n3)cc2F)nc2ccc(C(=O)O)cc21` [Example 202, (R)-2-(4-(6-((6-((1-cyanocyclopropyl)carbamoyl)pyridin-3-yl)methoxy)pyridin-2-yl)-2,5-difluorobenzyl)-1-(4,4-dimethyltetrahydrofuran-3-yl)-1H-benzo[d]imidazole-6-carboxylic acid], the EC50 worked out at 0.58 nM. The value for `NC(=O)c1ccc(COc2nccc(-c3cc(F)c(Cc4nc5ccc(C(=O)O)cc5n4C[C@@H]4CCO4)cc3F)n2)c(F)c1` [Example 203, (S)-2-(4-(2-((4-carbamoyl-2-fluorobenzyl)oxy)pyrimidin-4-yl)-2,5-difluorobenzyl)-1-(oxetan-2-ylmethyl)-1H-benzo[d]imidazole-6-carboxylic acid] was 1.1 nM; that for `NC(=O)c1sc(COc2cccc(-c3cc(F)c(Cc4nc5ccc(C(=O)O)cc5n4C[C@@H]4CCO4)cc3F)n2)cc1F` [Example 204, 2-[[4-[6-[(5-carbamoyl-4-fluoro-2-thienyl)methoxy]-2-pyridyl]-2,5-difluoro-phenyl]methyl]-3-[[(2S)-oxetan-2-yl]methyl]benzimidazole-5-carboxylic acid] was 5.57 nM. Take `N#Cc1sc(COc2cccc(-c3cc(F)c(Cc4nc5ccc(C(=O)O)cc5n4C[C@@H]4CCO4)cc3F)n2)cc1F` [Example 205, 2-[[4-[6-[(5-cyano-4-fluoro-2-thienyl)methoxy]-2-pyridyl]-2,5-difluoro-phenyl]methyl]-3-[[(2S)-oxetan-2-yl]methyl]benzimidazole-5-carboxylic acid]: the 50% effective concentration (EC50) was 0.25 nM. Next, `Cn1nc(COc2cccc(-c3cc(F)c(Cc4nc5ccc(C(=O)O)cc5n4C[C@@H]4CCO4)cc3F)n2)cc1C(N)=O` [Example 206, (S)-2-(4-(6-((5-carbamoyl-1-methyl-1H-pyrazol-3-yl)methoxy)pyridin-2-yl)-2,5-difluorobenzyl)-1-(oxetan-2-ylmethyl)-1H-benzo[d]imidazole-6-carboxylic acid]: 43.3 nM; `Cn1nc(COc2cccc(-c3cc(F)c(Cc4nc5ccc(C(=O)O)cc5n4C[C@@H]4CCO4)cc3F)n2)cc1C#N` [Example 207, (S)-2-(4-(6-((5-cyano-1-methyl-1H-pyrazol-3-yl)methoxy)pyridin-2-yl)-2,5-difluorobenzyl)-1-(oxetan-2-ylmethyl)-1H-benzo[d]imidazole-6-carboxylic acid]: 0.46 nM. For `NC(=O)c1cc(F)c(COc2nc(-c3cc(F)c(Cc4nc5c(F)cc(C(=O)O)cc5n4C[C@@H]4CCO4)cc3F)ccc2F)cn1` [Example 208, (S)-2-(4-(6-((6-carbamoyl-4-fluoropyridin-3-yl)methoxy)-5-fluoropyridin-2-yl)-2,5-difluorobenzyl)-4-fluoro-1-(oxetan-2-ylmethyl)-1H-benzo[d]imidazole-6-carboxylic acid], the 50% effective concentration (EC50) is 0.02 nM. In the case of `NC(=O)c1cnc(COc2cccc(-c3cc(F)c(Cc4nc5ccc(C(=O)O)cc5n4C[C@@H]4CCO4)cc3F)n2)cn1` [Example 209, (S)-2-(4-(6-((5-carbamoylpyrazin-2-yl)methoxy)pyridin-2-yl)-2,5-difluorobenzyl)-1-(oxetan-2-ylmethyl)-1H-benzo[d]imidazole-6-carboxylic acid], the response was half-maximal at 0.14 nM (EC50). The compound `O=C(O)c1ccc2nc(Cc3cc(F)c(-c4cccc(OCc5cn(C6CC6)nn5)n4)cc3F)n(C[C@@H]3CCO3)c2c1` [Example 210, 2-[[4-[6-[(1-cyclopropyltriazol-4-yl)methoxy]-2-pyridyl]-2,5-difluoro-phenyl]methyl]-3-[[(2S)-oxetan-2-yl]methyl]benzimidazole-5-carboxylic acid] came in with an EC50 of 15.7 nM.

Compound `O=C(O)c1ccc2nc(Cc3cc(F)c(-c4cccc(OCc5ccc(-n6cnc(C7CC7)n6)nc5)n4)cc3F)n(C[C@@H]3CCO3)c2c1` [Example 211, 2-[[4-[6-[[6-(3-cyclopropyl-1,2,4-triazol-1-yl)-3-pyridyl]methoxy]-2-pyridyl]-2,5-difluoro-phenyl]methyl]-3-[[(2S)-oxetan-2-yl]methyl]benzimidazole-5-carboxylic acid] registered an EC50 of 0.51 nM. The compound `O=C(O)c1ccc2nc(Cc3cc(F)c(-c4cccc(OCc5ccc(-n6cc(C7CC7)nn6)nc5)n4)cc3F)n(C[C@@H]3CCO3)c2c1` [Example 212, (S)-2-(4-(6-((6-(4-cyclopropyl-1H-1,2,3-triazol-1-yl)pyridin-3-yl)methoxy)pyridin-2-yl)-2,5-difluorobenzyl)-1-(oxetan-2-ylmethyl)-1H-benzo[d]imidazole-6-carboxylic acid] showed a half-maximal effective concentration (EC50) of 0.1 nM. Compound `O=C(O)c1ccc2nc(Cc3cc(F)c(-c4cccc(OCc5ccc(-c6cn([C@@H]7CCOC7)nn6)cc5F)n4)cc3F)n(C[C@@H]3CCO3)c2c1` [Example 213] came in with an EC50 of 0.48 nM. Next, `O=C(O)c1ccc2nc(Cc3cc(F)c(-c4cccc(OCc5ccc(-c6cn(C7CC7)nn6)cc5F)n4)cc3F)n(C[C@@H]3CCO3)c2c1` [Example 214, (S)-2-(4-(6-((4-(1-cyclopropyl-1H-1,2,3-triazol-4-yl)-2-fluorobenzyl)oxy)pyridin-2-yl)-2,5-difluorobenzyl)-1-(oxetan-2-ylmethyl)-1H-benzo[d]imidazole-6-carboxylic acid]: 0.08 nM; `O=C(O)c1ccc2nc(Cc3cc(F)c(-c4cccc(OCc5ccc(-c6cn(C7COC7)nn6)cc5F)n4)cc3F)n(C[C@@H]3CCO3)c2c1` [Example 215, (S)-2-(2,5-difluoro-4-(6-((2-fluoro-4-(1-(oxetan-3-yl)-1H-1,2,3-triazol-4-yl)benzyl)oxy)pyridin-2-yl)benzyl)-1-(oxetan-2-ylmethyl)-1H-benzo[d]imidazole-6-carboxylic acid]: 0.18 nM; `O=C(O)c1ccc2nc(Cc3cc(F)c(-c4cccc(OCc5ccc(-c6cn(C78CC(C7)C8)nn6)cc5F)n4)cc3F)n(C[C@@H]3CCO3)c2c1` [Example 216, (S)-2-(4-(6-((4-(1-(bicyclo[1.1.1]pentan-1-yl)-1H-1,2,3-triazol-4-yl)-2-fluorobenzyl)oxy)pyridin-2-yl)-2,5-difluorobenzyl)-1-(oxetan-2-ylmethyl)-1H-benzo[d]imidazole-6-carboxylic acid]: 0.72 nM. In turn, `O=C(O)c1ccc2nc(Cc3cc(F)c(-c4cccc(OCc5ccc(-c6cn([C@H]7CCOC7)nn6)cc5F)n4)cc3F)n(C[C@@H]3CCO3)c2c1` [Example 217, 2-(2,5-difluoro-4-(6-((2-fluoro-4-(1-((S)-tetrahydrofuran-3-yl)-1H-1,2,3-triazol-4-yl)benzyl)oxy)pyridin-2-yl)benzyl)-1-(((S)-oxetan-2-yl)methyl)-1H-benzo[d]imidazole-6-carboxylic acid] gave a concentration giving a half-maximal response (EC50) of 0.27 nM. On to `O=C(O)c1ccc2nc(Cc3cc(F)c(-c4cccc(OCc5ccc(-c6cn(C7CCOCC7)nn6)cc5F)n4)cc3F)n(C[C@@H]3CCO3)c2c1` [Example 218, (S)-2-(2,5-difluoro-4-(6-((2-fluoro-4-(1-(tetrahydro-2H-pyran-4-yl)-1H-1,2,3-triazol-4-yl)benzyl)oxy)pyridin-2-yl)benzyl)-1-(oxetan-2-ylmethyl)-1H-benzo[d]imidazole-6-carboxylic acid], for which the 50% effective concentration (EC50) amounted to 0.8 nM. Turning to `CC(C)(C)OC(=O)N[C@H]1C[C@@H](n2cc(-c3ccc(COc4cccc(-c5cc(F)c(Cc6nc7ccc(C(=O)O)cc7n6C[C@@H]6CCO6)cc5F)n4)c(F)c3)nn2)C1` [Example 219, 2-(4-(6-((4-(1-((1s,3s)-3-((tert-butoxycarbonyl)amino)cyclobutyl)-1H-1,2,3-triazol-4-yl)-2-fluorobenzyl)oxy)pyridin-2-yl)-2,5-difluorobenzyl)-1-(((S)-oxetan-2-yl)methyl)-1H-benzo[d]imidazole-6-carboxylic acid], the EC50 amounted to 0.85 nM.

On to `CN1CC(n2cc(-c3ccc(COc4cccc(-c5cc(F)c(Cc6nc7ccc(C(=O)O)cc7n6C[C@@H]6CCO6)cc5F)n4)c(F)c3)nn2)C1` [Example 220, (S)-2-(2,5-difluoro-4-(6-((2-fluoro-4-(1-(1-methylazetidin-3-yl)-1H-1,2,3-triazol-4-yl)benzyl)oxy)pyridin-2-yl)benzyl)-1-(oxetan-2-ylmethyl)-1H-benzo[d]imidazole-6-carboxylic acid], for which a half-maximal effect (EC50) was put at 2.08 nM.
